Laboratory results as given in US20250163104A1, “MACROCYCLIC IMMUNOMODULATORS” (priority 2021, published 2025).
Where a SMILES comes first, the peptide text is derived from it. Bridges are numbered along the chain shown (N, C = ends). [ ]: non-standard residue; d: D form. The star is where a group is joined. Bip = N[C@@H](Cc1ccc(-c2ccccc2)cc1)C(=O)O; Phe(3-OMe) = COc1cccc(C[C@H](N)C(=O)O)c1; 4Pal = N[C@@H](Cc1ccncc1)C(=O)O; 2Thi = N[C@@H](Cc1cccs1)C(=O)O; Cha = N[C@@H](CC1CCCCC1)C(=O)O; Cit = NC(=O)NCCC[C@H](N)C(=O)O; dCha = N[C@H](CC1CCCCC1)C(=O)O; Carboxymethyl = O=C(O)C*; Orn = NCCC[C@H](N)C(=O)O; Dab = NCC[C@H](N)C(=O)O; Dap = NC[C@H](N)C(=O)O

The compounds below were run against T1, human PD-1 / PD-L1-Ig binding on Jurkat cell line over-expressing human PD-1 (Jurkat-PD-1) (Homo sapiens, UniProt Q15116) (assay: Jurkat-PD-1 Cell Binding High-Content Screening Assay (CBA)). Settings: Jurkat-PD-1 cells, PE-labeled PD-L1-Ig 20 nM final; read-out: Jurkat HPD1_PDL1 IC50.
T1 construct: expressed in transfected cells; host or cells: Jurkat
Assay type: cell-based
In short: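 PE-PD-L1-Ig 20 nM final; cells in DMEM/10% FCS; cpd pre-incubation 2 h, 37° C; ligand 1 h; PFA fix + Hoechst 33342; high-content imaging read-out.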

T1 sequence (Q15116 25-288): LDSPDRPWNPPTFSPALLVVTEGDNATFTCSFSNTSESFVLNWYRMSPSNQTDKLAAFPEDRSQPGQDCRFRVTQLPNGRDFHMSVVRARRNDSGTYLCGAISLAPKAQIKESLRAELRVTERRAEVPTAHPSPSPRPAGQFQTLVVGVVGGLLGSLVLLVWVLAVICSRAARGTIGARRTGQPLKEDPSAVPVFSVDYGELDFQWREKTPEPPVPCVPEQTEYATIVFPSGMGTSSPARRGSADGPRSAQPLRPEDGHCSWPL

| Compound | IC50 [nM] |
| --- | --- |
| CC(C)[C@@H]1NC(=O)[C@H](Cc2c[nH]c3ccccc23)NC(=O)[C@H](CC(=O)O)NC(=O)[C@H](Cc2ccc(OCC(=O)O)cc2)NC(=O)[C@H](Cc2ccc(OCC(=O)O)cc2)NC(=O)CSC[C@@H](C(=O)N[C@@H](C)C(N)=O)NC(=O)[C@H]([C@@H](C)O)NC(=O)[C@H](C(C)C)NC(=O)[C@H](CC2CCCCC2)NC(=O)[C@H](CCN)NC(=O)[C@@H](CC2CCCCC2)NC(=O)[C@H](CCCN)NC(=O)[C@H](C(C)C)NC(=O)[C@H](Cc2ccc(-c3ccccc3)cc2)NC1=O [Compound 1633] ({CH2CO}-Y(Carboxymethyl)Y(Carboxymethyl)DWV[Bip]V[Orn][dCha][Dab][Cha]VTCA-NH2; thioether N-14) | 20.2 |
| CC(C)C[C@@H]1NC(=O)[C@H](CCN)NC(=O)[C@@H](CC(C)C)NC(=O)[C@H](CCCN)NC(=O)[C@H](CCCNC(N)=O)NC(=O)[C@H](Cc2ccc(-c3ccccc3)cc2)NC(=O)[C@H](C(C)C)NC(=O)[C@H](Cc2c[nH]c3ccccc23)NC(=O)[C@H](CC(=O)O)NC(=O)[C@H](Cc2ccc(O)cc2)NC(=O)[C@H](CC(N)=O)NC(=O)CSC[C@@H](C(=O)N[C@@H](C)C(N)=O)NC(=O)[C@H]([C@@H](C)O)NC(=O)[C@H](C(C)C)NC1=O [Compound 1017] ({CH2CO}-NYDWV[Bip][Cit][Orn][dL][Dab]LVTCA-NH2; thioether N-14) | 20.3 |
| CC(C)C[C@H]1NC(=O)[C@H](CN)NC(=O)[C@H](C(C)C)NC(=O)[C@H](Cc2ccc(-c3ccccc3)cc2)NC(=O)[C@H](C(C)C)NC(=O)[C@H](Cc2c[nH]c3ccccc23)NC(=O)[C@H](CC(=O)O)NC(=O)[C@H](Cc2ccncc2)NC(=O)[C@H](Cc2ccc(OCC(=O)O)cc2)NC(=O)CSC[C@@H](C(=O)NCC(N)=O)NC(=O)[C@H](CO)NC(=O)[C@H](C(C)C)NC(=O)[C@H](CC2CCCCC2)NC(=O)[C@H](CC(N)=O)NC1=O [Compound 1456] ({CH2CO}-Y(Carboxymethyl)[4Pal]DWV[Bip]V[Dap][dL]N[Cha]VSCG-NH2; thioether N-14) | 6.1 |
| COc1cccc(C[C@@H]2NC(=O)[C@H](CC(=O)O)NC(=O)[C@H](Cc3ccc(OCC(=O)O)cc3)NC(=O)[C@H](Cc3ccncc3)NC(=O)CSC[C@@H](C(=O)N[C@@H](C)C(N)=O)NC(=O)[C@H]([C@@H](C)O)NC(=O)[C@H](C(C)C)NC(=O)[C@H](CC(C)C)NC(=O)[C@H](CCN)NC(=O)[C@@H](CC(C)C)NC(=O)[C@H](CCCN)NC(=O)[C@H](C(C)C)NC(=O)[C@H](Cc3ccc(-c4ccccc4)cc3)NC(=O)[C@H](C(C)C)NC2=O)c1 [Compound 1188] ({CH2CO}-[4Pal]Y(Carboxymethyl)D[Phe(3-OMe)]V[Bip]V[Orn][dL][Dab]LVTCA-NH2; thioether N-14) | 7.9 |

Other lines, results leading:

| IC50 [nM] | Compound |
| --- | --- |
| 19.3 | CC(C)C[C@H]1NC(=O)[C@H](CCCN)NC(=O)[C@H](CCC(=O)O)NC(=O)[C@H](Cc2ccc(-c3ccccc3)cc2)NC(=O)[C@H](C(C)C)NC(=O)[C@H](Cc2ccccc2F)NC(=O)[C@H](CC(=O)O)NC(=O)[C@H](Cc2ccc(C#N)cc2)NC(=O)[C@H](Cc2ccncc2)NC(=O)CSC[C@@H](C(=O)N[C@@H](C)C(N)=O)NC(=O)[C@H]([C@@H](C)O)NC(=O)[C@H](C(C)C)NC(=O)[C@H](CC2CCCCC2)NC(=O)[C@H](CCN)NC1=O [Compound 2216] |
| 14.6 | CC(C)C[C@H]1NC(=O)[C@H](CCCN)NC(=O)[C@H](CCC(=O)O)NC(=O)[C@H](Cc2ccc(-c3ccccc3)cc2)NC(=O)[C@H](C(C)C)NC(=O)[C@H](Cc2cccs2)NC(=O)[C@H](CC(=O)O)NC(=O)[C@H](Cc2cccs2)NC(=O)[C@H](Cc2ccc(OCC(=O)O)cc2)NC(=O)CSC[C@@H](C(=O)N[C@@H](C)C(N)=O)NC(=O)[C@H]([C@@H](C)O)NC(=O)[C@H](C(C)C)NC(=O)[C@H](CC2CCCCC2)NC(=O)[C@H](CCN)NC1=O [Compound 2206] ({CH2CO}-Y(Carboxymethyl)[2Thi]D[2Thi]V[Bip]E[Orn][dL][Dab][Cha]VTCA-NH2; thioether N-14) |
